Measurements as given in patent publication US20040162221A1, “Pyrazole derivatives and herbicides containing the same” (IDEMITSU KOSAN CO., LTD., priority 1998, published 2004).

Key:
[1] = system: corn; test: Upland post-emergence treatment test, phytotoxicity to corn; assay type: in vivo; conditions: post-emergence spray at 3-4 leaf stage, 80 g/ha, 30th day after treatment, greenhouse; further: ranges in brackets are in %
From the text: (§1) 97 Parts by weight of talc (trade name: Zeaklite, supplied by Zeaklite Industry) as a carrier, 1.5 parts by weight of alkylarylsulfonic acid salt (trade name: Neoplex, supplied by Kao-Atlas K.K.) as a surfactant and 1.5 parts by weight of a nonionic and anionic surfactant (trade names Sorpol 800A, supplied by Toho Chemical Co., Ltd.) were uniformly pulverized and mixed to prepare a carrier for a wettable powder.
(§2) 90 Parts by weight of the above carrier for a wettable powder and 10 parts by weight of one of the compounds of the present invention were uniformly pulverized and mixed to obtain herbicides. Further, in Comparative Herbicide Examples, comparative herbicides were also prepared from the following compounds (A) and (B) in the same manner.
(§3) Herbicidal efficacy and phytotoxicity to crops were determined on the basis of the ratio of remaining plant weight to plant weight in non-treated plot=(remaining plant weight in treated plot/plant weight in non-treated-plot)×100. The ratings were applied to the following biological tests.
(§4) Seeds of weeds velvetleaf, redroot pigweed, common ragweed, green foxtail and large crabgrass and seeds of corn were sown in 1/5,000-are Wagner pots filled with upland soil, and covered with upland soil. The seeds were grown in a greenhouse, and at the stage of 3˜4 leaves of these plants, a predetermined amount of the herbicide prepared in the above (1) was suspended in water, and the suspension was uniformly sprayed onto leaf and stalk portions at a rate of 2,000 liters/hectare. Then, the plants were grown in the greenhouse, and on the 30th day after the treatment, the herbicide was evaluated for herbicidal efficacy and phytotoxicity to the corn on the basis of the ratings shown in (2).

[2] = system: redroot pigweed; test: Upland post-emergence treatment test, redroot pigweed; assay type: in vivo, redroot pigweed (Amaranthus retroflexus); conditions: for Herbicidal Efficacy CC = Redroot Pigweed: post-emergence spray at 3-4 leaf stage, 80 g/ha, 30th day after treatment, greenhouse; for herbicidal efficacy against redroot pigweed (in words): post-emergence, Tables 8 and 9; on Herbicidal Efficacy CC = Redroot Pigweed: ranges in brackets are in %
From the text: as §1, §2, §3, §4

[3] = system: redroot pigweed; test: Upland pre-emergence treatment test, redroot pigweed; assay type: in vivo, redroot pigweed (Amaranthus retroflexus); conditions: for Herbicidal Efficacy CC = Rough Pigweed: pre-emergence soil surface spray, 80 g/ha, 20th day after treatment, greenhouse; for herbicidal efficacy against redroot pigweed (in words): pre-emergence, text summary of Table 7; on Herbicidal Efficacy CC = Rough Pigweed: ranges in brackets are in %
From the text: as §1, §2, §3
(§5) Seeds of weeds such as velvetleaf, common lambsquaters, redroot pigweed, common ragweed, green foxtail and large crabgrass and seeds of corn were sown in 1/5,000-are Wagner pots filled with upland soil, and covered with upland soil. Then, a predetermined amount of the herbicide prepared in the above (1) was suspended in water, and the suspension was uniformly sprayed onto the soil surface at a rate of 2,000 liters/hectare. Then, the seeds were grown in a greenhouse, and on the 20th day after the treatment, the herbicide was evaluated for herbicidal efficacy and phytotoxicity to corn on the basis of the ratings shown in (2).

[4] = system: common lambsquaters; test: Upland pre-emergence treatment test, common lambsquaters; assay type: in vivo, common lambsquaters (Chenopodium album); conditions: pre-emergence soil surface spray, 80 g/ha, 20th day after treatment, greenhouse; further: ranges in brackets are in %
From the text: as §1, §2, §3, §5

[5] = system: large crabgrass; test: Upland post-emergence treatment test, large crabgrass; assay type: in vivo; conditions: post-emergence spray at 3-4 leaf stage, 80 g/ha, 30th day after treatment, greenhouse; further: ranges in brackets are in %
From the text: as §1, §2, §3, §4

[6] = system: green foxtail; test: Upland post-emergence treatment test, green foxtail; assay type: in vivo, green foxtail (Setaria viridis); conditions: post-emergence spray at 3-4 leaf stage, 80 g/ha, 30th day after treatment, greenhouse; further: ranges in brackets are in %
From the text: as §1, §2, §3, §4

[7] = system: common ragweed; test: Upland pre-emergence treatment test, common ragweed; assay type: in vivo, common ragweed (Ambrosia artemisilfolia); conditions: for Herbicidal Efficacy DD = Common ragweed: pre-emergence soil surface spray, 80 g/ha, 20th day after treatment, greenhouse; on Herbicidal Efficacy DD = Common ragweed: ranges in brackets are in %
From the text: as §1, §2, §3, §5

[8] = system: green foxtail; test: Upland pre-emergence treatment test, green foxtail; assay type: in vivo, green foxtail (Setaria viridis); conditions: pre-emergence soil surface spray, 80 g/ha, 20th day after treatment, greenhouse; further: ranges in brackets are in %
From the text: as §1, §2, §3, §5

[9] = system: common ragweed; test: Upland post-emergence treatment test, common ragweed; assay type: in vivo, common ragweed (Ambrosia artemisilfolia); conditions: post-emergence spray at 3-4 leaf stage, 80 g/ha, 30th day after treatment, greenhouse; further: ranges in brackets are in %
From the text: as §1, §2, §3, §4

[10] = system: velvetleaf; test: Upland pre-emergence treatment test, velvetleaf; assay type: in vivo, velvetleaf (Abutilon theophrasti); conditions: for Herbicidal Efficacy AA = Velvetleaf: pre-emergence soil surface spray, 80 g/ha, 20th day after treatment, greenhouse; on Herbicidal Efficacy AA = Velvetleaf: ranges in brackets are in %
From the text: as §1, §2, §3, §5

[11] = system: corn; test: Upland pre-emergence treatment test, phytotoxicity to corn; assay type: in vivo; conditions: pre-emergence soil surface spray, 80 g/ha, 20th day after treatment, greenhouse; further: ranges in brackets are in %
From the text: as §1, §2, §3, §5

[12] = system: large crabgrass; test: Upland pre-emergence treatment test, large crabgrass; assay type: in vivo; conditions: pre-emergence soil surface spray, 80 g/ha, 20th day after treatment, greenhouse; further: ranges in brackets are in %
From the text: as §1, §2, §3, §5

[13] = system: velvetleaf; test: Upland post-emergence treatment test, velvetleaf; assay type: in vivo, velvetleaf (Abutilon theophrasti); conditions: for Herbicidal Efficacy AA = Velvetleaf: post-emergence spray at 3-4 leaf stage, 80 g/ha, 30th day after treatment, greenhouse; on Herbicidal Efficacy AA = Velvetleaf: ranges in brackets are in %
From the text: as §1, §2, §3, §4

[14] = pre-emergence, text summary of Table 7

| Structure (SMILES) | Phytotoxicity Corn [1] | Herbicidal Efficacy CC = Redroot Pigweed [2] | Herbicidal Efficacy CC = Rough Pigweed [3] | Herbicidal Efficacy BB = Common lambsquaters [4] | Herbicidal Efficacy FF = Large crabgrass [5] | Herbicidal Efficacy EE = Green foxtail [6] | Herbicidal Efficacy DD = Common ragweed [7] | Herbicidal Efficacy EE = Green foxtail [8] | Herbicidal Efficacy DD = Common ragweed [9] | Herbicidal Efficacy AA = Velvetleaf [10] | Phytotoxicity Corn [11] | Herbicidal Efficacy FF = Large crabgrass [12] | Herbicidal Efficacy AA = Velvetleaf [13] | herbicidal efficacy against redroot pigweed (in words) [2] | herbicidal efficacy against redroot pigweed (in words) [3] | herbicidal efficacy against common ragweed (in words) [7, 14] | herbicidal efficacy against velvetleaf (in words) [10, 14] | herbicidal efficacy against velvetleaf (in words) ([13]; post-emergence, Tables 8 and 9) |
| --- | --- | --- | --- | --- | --- | --- | --- | --- | --- | --- | --- | --- | --- | --- | --- | --- | --- | --- |
| Cc1c(C(=O)c2cnn(C)c2O)ccc2c1C(C)(C)CS2(=O)=O.[Na] [Compound 52, 5-(1′-methyl-5′-hydroxypyrazol-4′-yl)carbonyl-3,3,4-trimethyl-2,3-dihdyrobenzothiophene-1,1-dioxide sodium salt] | − (100) | 5 (0) | 5 (0) | 5 (0) | 5 (0) | 5 (0) | 4 (1-20) | 4 (1-20) | 5 (0) | 4 (1-20) | − (100) | 5 (0) | 5 (0) |  |  |  |  |  |
| CCCS(=O)(=O)Oc1c(C(=O)c2cc(C)c3c(c2C)C(C)(C)CS3(=O)=O)cnn1CC [Compound (A), reference compound] | − (100) | 0 (81-100) | 0 (81-100) | 2 (41-60) | 1 (61-80) | 1 (61-80) | 1 (61-80) | 1 (61-80) | 2 (41-60) | 2 (41-60) | − (100) | 1 (61-80) | 2 (41-60) | clearly poor | clearly poor |  |  |  |
| CCn1ncc(C(=O)c2cc(C)c3c(c2C)C(C)CS3(=O)=O)c1O (stereo not shown) [Compound (B), reference compound] | ++ (80-89) | 2 (41-60) | 1 (61-80) | 4 (1-20) | 5 (0) | 4 (1-20) | 2 (41-60) | 5 (0) | 5 (0) | 1 (61-80) | − (100) | 5 (0) | 2 (41-60) | inferior | inferior | inferior | inferior | inferior |
